Measured values from patent publication US7375103B2, “Optically active pyridine derivative and a medicament containing the same” (Bayer HealthCare AG, priority 2002, dated 2008).

Key:
[1] = cellular assays (not further specified); assay type: cell-based
Experimental: [The Measurement of RANTES Production in Response to TNF-α from A549 cells]
(1) Preparation of A549 Cells
• The A549 human lung epithelium cell line (ATCC […]) was maintained in Dulbecco's modified Eagle's medium (D-MEM, Nikken Biomedical Institute) supplemented with 10% FCS (Gibco), 100 U/ml penicillin, 100 μg/ml streptomycin, and 2 mM glutamine (culture medium). Forty thousand (4×10^4) cells (80 μl/well) were seeded in each well of 96 well flat-bottom tissue culture plate (Falcon #3072). The plate was allowed to stand for 2 hrs, thus the cells were adhered to the bottom of each well. To the each well was added 10 μl vehicle (1% DMSO), serial dilutions of test compounds in 1% DMSO, or 5 nM Dexamethasone in 1% DMSO as a reference. The mixture (90 μl/well) was incubated for 1 hr at 37° C. After 1 hr, 1 μg/ml TNF-α (10 μl) in culture medium was added to the mixture to obtain 100 μl of reaction mixture. The reaction mixture was cultured for 24 hrs to stimulate the cells with 100 ng/ml TNF-α. […] (2) Measurement of RANTES Production • Then the concentration of RANTES released from the cells in the supernatants of each well was determined using a quantitative sandwich enzyme immunoassay technique. […] Fluorescent intensity was measured using a DELFIA fluorimeter (Wallac). Excitation was performed at 340 nm and emission was measured at 615 nm. […]

[2] = test system: LPS-induced TNF-α production; assay: Rat LPS-induced TNF-α production; assay type: in vivo, Wistar female rats; conditions: in Rat
Experimental: [Rat LPS-Induced TNF-α Production]
Seven weeks old Wistar female rats were used. One mg of LPS (lypopolysaccharide) dissolved in phosphate buffer saline (pH 7.4) was administered intraperitoneally (i.p.) to rats. Compounds were given orally 60 minutes prior to the LPS injection. Under anesthesia with pentobarbital (80 mg/kg, i.p.), blood was collected from the posterior venous cavity of the rats 120 minutes post-LPS injection and added into 96-well plate containing 2% EDTA solution. The plasma was separated by centrifugation at 1800 rpm for 10 minutes at 4° C. and then diluted with four times volumes of phosphate buffer saline (H 7.4) containing 1% bovine serum albumin. TNF-α concentration in the sample was determined using an ELISA kit (Endogen, Boston, Mass.).
The mean TNF-α level in 7-8 rats from each group was determined and the percent reduction in TNF-α levels was calculated.

For `O=C1Nc2nc(-c3c(O)cccc3OCC3CC3)cc([C@@H]3CCCNC3)c2CO1` [the compound of the present invention, (−)-7-[2-(cyclopropylmethoxy)-6-hydroxy-phenyl]-5-[(3S)-3-piperidinyl]-1,4-hydro-2H-pyrido [2,3-d][1,3]oxazin-2-one], the “mutagenicity according to the Ames-Test Screening” value (Ames-Test Screening) was “non-mutagenic”, the “cellular activity compared with corresponding racemic modification” value [1] was “twice as strong as corresponding racemic modification” and the “anti-inflammatory activity compared with corresponding racemic modification” value [2] was “twice as strong as corresponding racemic modification”.
